Data from patent publication US8378125B2, “Substance FKI-3864 and method for preparation thereof” (School Juridical Person Kitasato Institute, priority 2008, dated 2013).
Where two headings read alike, the source gives them in different places.

Columns and labels:
[1] = Solubility in solvents; type: physicochemical
Description: (7) Solubility in solvents: Soluble in methanol, chloroform, and ethyl acetate; insoluble in water.

[2] = tested on: synthesis of intracellular triacylglycerols; test: Inhibitory activity on the synthesis of intracellular triacylglycerols, [14C] oleic acid incorporation in CHO-K1 cells; type: cell-based, Chinese hamster; details: [1-14C] oleic acid, 6 hours incubation, read-out: IC50, inhibition of formation of [14C] triacylglycerols
Protocol: The inhibitory activity on the synthesis of intracellular triacylglycerols of substance FKI-3864 according to the invention was tested in the manner described below.
Chinese hamster ovary cells (CHO-K1 cells) adjusted to 5.0×10^5 cells/mL with HAMs F12 medium (10% FBS, containing Penicillin/Streptomycin) were distributed on a 48-well plate in aliquots of 250 μL.
Then, after the cells were incubated at 37° C. for 12 hours in a 5% carbon dioxide gas incubator to adhere the cells, substance FKI-3864 (2.5 μL as a methanol solution) and [1−^14C] oleic acid (5 μL, 1.85 kBq, 1 nmol) were added, and incubation was continued for additional 6 hours.
The supernatant of the culture was removed, and after 0.1% SDS-Tris/HCl (pH 7.5, 120 μL) was added for lysis of the cells, neutral fat in the cells was extracted by the Bligh & Dyer method. After the extract was concentrated, it was spotted on a TLC (silica gel plate, Merck, 0.5 mm in thickness) and developed with a solvent of hexane/diethyl ether/acetic acid (70:30:1, v/v/v), and the quantity of isolated [^14C] triacylglycerols was determined with BAS 2000 (Fuji Film).
Using the same manner as in Test 1, the inhibitory activities on the synthesis of intracellular triacylglycerols of substances FKI-3864-1 and FKI-3864-2 were measured. […] In addition, the activities of mixtures in which substances FKI-3864-1 and FKI-3864-2 were mixed at different ratios are shown in Table 2.

Compound: CCCCCC(O)CC(O)CC1Cc2cc3cc(OC)c(-c4c(OC)cc5cc6c(c(O)c5c4O)C(=O)OC(CC(O)CC(O)CCCCC)C6)c(O)c3c(O)c2C(=O)O1 (single isomer, unassigned) [FKI-3864-1]
- Solubility in solvents: methanol, chloroform, and ethyl acetate [1]: Soluble
- Solubility in solvents: water [1]: insoluble
- IC50 [2]: ≥ 12000 nM

Compound: CCCCCC(O)CC(O)CC1Cc2cc3cc(OC)c(-c4c(OC)cc5cc6c(c(O)c5c4O)C(=O)OC(CC(O)CC(O)CCCCC)C6)c(O)c3c(O)c2C(=O)O1 (single isomer, unassigned) [FKI-3864-2]
- Solubility in solvents: methanol, chloroform, and ethyl acetate [1]: Soluble
- Solubility in solvents: water [1]: insoluble
- IC50 [2]: 540 nM

Compound: CCCCCC(O)CC(O)CC1Cc2cc3cc(OC)c(-c4c(OC)cc5cc6c(c(O)c5c4O)C(=O)OC(CC(O)CC(O)CCCCC)C6)c(O)c3c(O)c2C(=O)O1 (stereo not drawn) [FKI-3864]
- Solubility in solvents: methanol, chloroform, and ethyl acetate [1]: Soluble
- Solubility in solvents: water [1]: insoluble
- IC50 ([2]; Cricetulus griseus, CHO-K1, 6 h): 93 nM
